Assay results from patent publication US10526287B2, “LSD1 inhibitors and uses thereof” (Constellation Pharmaceuticals, Inc., priority 2015, dated 2020).
Counter-ions that a name gives are not always drawn.

The compounds below were run against LSD1 (Homo sapiens, UniProt O60341) (assay: Biochemical assay for LSD1 activity (LSD1 demethylase TR-FRET)). Conditions: Table 6; biotinylated H3K4me1 peptide, 50 minutes at room temperature, TR-FRET; read-out: LSD1_Pep_TR-FRET_1.0 (IC50 T50).

Row | Compound | IC50 [µM]
1 | CC(C)/C(=C\c1ccccc1)[C@@H]1C[C@H]1NC1CCNCC1 (racemic) [Compound 277, N-((trans)-2-((E)-3-methyl-1-phenylbut-1-en-2-yl)cyclopropyl)piperidin-4-amine Dihydrochloride] | < 0.1
2 | CC(=Cc1ccc(C#N)cc1)C1CC1N[C@H]1CC[C@@H](N)CC1 (relative stereo) [Compound 131, 4-(2-(2-(((cis)-4-aminocyclohexyl)amino)cyclopropyl)prop-1-en-1-yl)benzonitrile Dihydrochloride] | > 10
3 | CC(=Cc1ccc(C#N)cc1)C1CC1N[C@H]1CC[C@H](N)CC1 (relative stereo) [Compound 132, 4-(2-(2-(((trans)-4-aminocyclohexyl)amino)cyclopropyl)prop-1-en-1-yl)benzonitrile Dihydrochloride] | > 10
4 | CC/C(=C\c1ccccc1)[C@@H]1C[C@H]1N[C@H]1CC[C@H](NCCCC(=O)O)CC1 (relative stereo) [Compound 180, 4-(((trans)-4-(((trans)-2-((E)-1-phenylbut-1-en-2-yl)cyclopropyl)amino)cyclohexyl)amino)butanoic Acid bis(trifluoroacetic Acid) Salt] | < 0.1
5 | C/C(=C\c1ccccc1)[C@@H]1C[C@H]1N[C@H]1CC[C@H](N(C)C)CC1 (single isomer, unassigned) [Compound 138, (trans)-N^1,N^1-dimethyl-N^4-((trans)-2-((E)-1-phenylprop-1-en-2-yl)cyclopropyl)cyclohexane-1,4-diamine] | < 0.1
6 | COCCNC1CCC(N[C@@H]2C[C@H]2/C(C)=C/c2ccccc2)CC1 (single isomer, unassigned) [Compound 143, (trans)-N1-(2-methoxyethyl)-N4-((trans)-2-((E)-1-phenylprop-1-en-2-yl)cyclopropyl)cyclohexane-1,4-diamine bis(trifluoroacetic acid salt)] | < 0.1
7 | COCCN[C@H]1CC[C@@H](N[C@@H]2C[C@H]2/C(C)=C/c2ccccc2)CC1 (single isomer, unassigned) [Compound 144, (cis)-N1-(2-methoxyethyl)-N4-((trans)-2-((E)-1-phenylprop-1-en-2-yl)cyclopropyl)cyclohexane-1,4-diamine bis(trifluoroacetic acid) salt] | < 0.1
8 | CNC(=O)CCCN[C@H]1CC[C@@H](N[C@@H]2C[C@H]2/C(C)=C/c2ccccc2)CC1 (single isomer, unassigned) [Compound 145, N-methyl-4-(((cis)-4-(((trans)-2-((E)-1-phenylprop-1-en-2-yl)cyclopropyl)amino)cyclohexyl)amino)butanamide bis(trifluoroacetic acid) salt] | < 0.1
9 | C/C(=C\c1ccccc1)[C@@H]1C[C@H]1N[C@H]1CC[C@H](NCCC(=O)N2CCCC2)CC1 (single isomer, unassigned) [Compound 146, 3-(((trans)-4-(((trans)-2-((E)-1-phenylprop-1-en-2-yl)cyclopropyl)amino)cyclohexyl)amino)-1-(pyrrolidin-1-yl)propan-1-one bis(trifluoroacetic acid) salt] | < 0.1
10 | C/C(=C\c1ccccc1)[C@@H]1C[C@H]1N[C@H]1CC[C@H](NCC(C)(C)C(=O)O)CC1 (single isomer, unassigned) [Compound 148, 2,2-dimethyl-3-(((trans)-4-(((trans)-2-((E)-1-phenylprop-1-en-2-yl)cyclopropyl)amino)cyclohexyl)amino)propanoic acid bis(trifluoroacetic acid) salt] | < 0.1
11 | C/C(=C\c1ccccc1)[C@@H]1C[C@H]1N[C@H]1CC[C@@H](NCC(C)(C)C(=O)O)CC1 (single isomer, unassigned) [Compound 149, 2,2-dimethyl-3-(((cis)-4-(((trans)-2-((E)-1-phenylprop-1-en-2-yl)cyclopropyl)amino)cyclohexyl)amino)propanoic acid bis(trifluoroacetic acid) salt] | < 0.1
12 | C/C(=C\c1ccccc1)[C@@H]1C[C@H]1N[C@H]1CC[C@H](NCc2ccc(C(=O)O)cc2)CC1 (single isomer, unassigned) [Compound 150, 4-((((trans)-4-(((trans)-2-((E)-1-phenylprop-1-en-2-yl)cyclopropyl)amino)cyclohexyl)amino)methyl)benzoic acid bis(trifluoroacetic acid) salt] | < 0.1
13 | C/C(=C\c1ccccc1)[C@@H]1C[C@H]1N[C@H]1CC[C@H](NCCC(N)=O)CC1 (single isomer, unassigned) [Compound 151, 3-(((trans)-4-(((trans)-2-((E)-1-phenylprop-1-en-2-yl)cyclopropyl)amino)cyclohexyl)amino)propanamide bis(trifluoroacetic acid) salt] | < 0.1
14 | C/C(=C\c1ccccc1)[C@@H]1C[C@H]1N[C@H]1CC[C@@H](NCCC(N)=O)CC1 (single isomer, unassigned) [Compound 152, 3-(((cis)-4-(((trans)-2-((E)-1-phenylprop-1-en-2-yl)cyclopropyl)amino)cyclohexyl)amino)propanamide bis(trifluoroacetic acid) salt] | < 0.1
15 | C/C(=C\c1ccccc1)[C@@H]1C[C@H]1N[C@H]1CC[C@H](NCCC#N)CC1 (single isomer, unassigned) [Compound 155, 3-(((trans)-4-(((trans)-2-((E)-1-phenylprop-1-en-2-yl)cyclopropyl)amino)cyclohexyl)amino)propanenitrile bis(trifluoroacetic acid) salt] | < 0.1
16 | C/C(=C\c1ccccc1)[C@@H]1C[C@H]1N[C@H]1CC[C@@H](NCCC#N)CC1 (single isomer, unassigned) [Compound 156, 3-(((cis)-4-(((trans)-2-((E)-1-phenylprop-1-en-2-yl)cyclopropyl)amino)cyclohexyl)amino)propanenitrile bis(trifluoroacetic acid) salt] | < 0.1
17 | CC/C(=C\c1ccccc1)[C@@H]1C[C@H]1N[C@H]1CC[C@H](NCC(C)(C)C#N)CC1 (single isomer, unassigned) [Compound 157, 2,2-dimethyl-3-(((trans)-4-(((trans)-2-((E)-1-phenylbut-1-en-2-yl)cyclopropyl)amino)cyclohexyl)amino)propanenitrile bis(trifluoroacetic acid salt)] | < 0.1
18 | CC/C(=C\c1ccccc1)[C@@H]1C[C@H]1N[C@H]1CC[C@@H](NCC(C)(C)C#N)CC1 (single isomer, unassigned) [Compound 158, 2.2-dimethyl-3-(((cis)-4-(((trans)-2-((E)-1-phenylbut-1-en-2-yl)cyclopropyl)amino)cyclohexyl)amino)propanenitrile bis(trifluoroacetic acid salt)] | < 0.1
19 | CC/C(=C\c1ccccc1)[C@@H]1C[C@H]1N[C@H]1CC[C@H](NCCO)CC1 (single isomer, unassigned) [Compound 159, 2-(((trans)-4-(((trans)-2-((E)-1-phenylbut-1-en-2-yl)cyclopropyl)amino)cyclohexyl)amino)ethan-1-ol bis(trifluoroacetic acid salt)] | < 0.1
20 | CC/C(=C\c1ccccc1)[C@@H]1C[C@H]1N[C@H]1CC[C@H](NCc2c(OC)cc(C)[nH]c2=O)CC1 (single isomer, unassigned) [Compound 160, 4-methoxy-6-methyl-3-((((trans)-4-(((trans)-2-((E)-1-phenylbut-1-en-2-yl)cyclopropyl)amino)cyclohexyl)amino)methyl)pyridin-2(1H)-one bis(trifluoroacetic acid salt)] | < 0.1
21 | CC/C(=C\c1ccccc1)[C@@H]1C[C@H]1N[C@H]1CC[C@H](NCC2(CO)COC2)CC1 (single isomer, unassigned) [Compound 161, (3-((((trans)-4-(((trans)-2-((E)-1-phenylbut-1-en-2-yl)cyclopropyl)amino)cyclohexyl)amino)methyl)oxetan-3-yl)methanolbis(trifluoroacetic acid salt)] | < 0.1
22 | CC/C(=C\c1ccccc1)[C@@H]1C[C@H]1N[C@H]1CC[C@H](NCCOCC(=O)O)CC1 (single isomer, unassigned) [Compound 162, 2-(2-(((trans)-4-(((trans)-2-((E)-1-phenylbut-1-en-2-yl)cyclopropyl)amino)cyclohexyl)amino)ethoxy)acetic acidbis(trifluoroacetic acid salt)] | < 0.1

Same assay, conditions: Table 7; biotinylated H3K4me1 peptide, 50 minutes at room temperature, TR-FRET; read-out: LSD1_Pep_TR-FRET_1.0 (IC50 T50)

Row | Compound | IC50 [µM]
23 | CC/C(=C\c1ccccc1)[C@@H]1C[C@H]1NC[C@H]1C[C@H](NCc2ccc(C(=O)O)cc2)C1 (racemic) [Compound 236] | < 0.1
24 | CC/C(=C\c1ccccc1)[C@@H]1C[C@H]1NC[C@H]1C[C@H](N)C1 (racemic) [Compound 239] | < 0.1
25 | CC/C(=C\c1ccccc1)[C@@H]1C[C@H]1NCCC(C)(C)N (racemic) [Compound 240] | < 0.1
26 | CC/C(=C\c1ccccc1)[C@@H]1C[C@H]1NCCC1CN(Cc2ccc(C(=O)O)cc2)C1 (racemic) [Compound 241] | < 0.1
27 | CC/C(=C\c1ccccc1)[C@@H]1C[C@H]1NCc1cnn(C2CNC2)c1 (racemic) [Compound 242] | < 0.1
28 | CC/C(=C\c1ccccc1)[C@@H]1C[C@H]1NCC1(C)CNC1 (racemic) [Compound 243] | < 0.1
29 | CC/C(=C\c1ccccc1)[C@@H]1C[C@H]1NC[C@H]1CC[C@H](NCc2ccc(C(=O)O)cc2)CC1 (racemic) [Compound 245, 4-((((trans)-4-((((trans)-2-((E)-1-phenylbut-1-en-2-yl)cyclopropyl)amino)methyl)cyclohexyl)amino)methyl)benzoic Acid Bis Trifluoroacetate] | < 0.1
30 | CC/C(=C\c1ccccc1)[C@@H]1C[C@H]1NCc1cnc(N)nc1 (racemic) [Compound 246, 5-((((trans)-2-((E)-1-phenylbut-1-en-2-yl)cyclopropyl)amino)methyl)pyrimidin-2-amine Hydrochloride] | < 0.1
31 | CC/C(=C\c1ccccc1)[C@@H]1C[C@H]1NCc1ccccc1CN (racemic) [Compound 247, (trans)-N-(2-(aminomethyl)benzyl)-2-((E)-1-phenylbut-1-en-2-yl)cyclopropan-1-amine] | < 0.1
